In PubChem BioAssay AID1549 (Sanford-Burnham Center for Chemical Genomics, 2009):
The source made the active and inactive calls. The rule behind the calls is not given here.

Molecular target: Influenza A virus M2 proton channel (A/TW/4845/1999 H1N1)
Experiment: NMR binding screen, influenza A virus M2 proton channel, Kd (AID 1549)
Conditions: M2 protein

CC1(C)C=Cc2c(cc3occ(-c4ccc5c(c4)OCO5)c(=O)c3c2O)O1
Kd: > 4 mM (inactive)

CN1CCN(CC(=O)N2CCc3ccccc32)CC1
Kd: > 4 mM (inactive)

O=S(=O)(Nc1cccc2cn[nH]c12)c1ccc(F)cc1
Kd: > 4 mM (inactive)

NN1C(=O)CSC1=Nc1ccccc1
Kd: > 4 mM (inactive)

CN1C2CC[C@@H]1CC(OC(=O)[C@H](CO)c1ccccc1)C2 (stereo partly drawn)
Kd: > 4 mM (inactive)

CC(=O)Oc1ccc(O)cc1
Kd: > 4 mM (inactive)

O=C(Nn1cnnc1)c1csc2ccccc12
Kd: > 4 mM (inactive)

O=C(NCc1ccco1)c1cccc(F)c1
Kd: > 4 mM (inactive)

c1ccc2[nH]c(-c3cscn3)nc2c1
Kd: > 4 mM (inactive)

Cc1sc2nc(SCC(=O)N(C)C)[nH]c(=O)c2c1C
Kd: > 4 mM (inactive)

Cc1cc(=O)n(CCc2ccccc2)c(O)c1C#N
Kd: > 4 mM (inactive)

NNC(=O)c1ccccc1-n1cccc1
Kd: > 4 mM (inactive)

Cc1nc(NC(=O)c2cccnc2)ccc1Br
Kd: > 4 mM (inactive)

OCc1ccccc1O[C@@H]1O[C@H](CO)[C@@H](O)[C@H](O)[C@H]1O
Kd: > 4 mM (inactive)

CC(C)CCCC(C)[C@H]1CCC2C3CC[C@H]4CC(=O)CC[C@]4(C)C3CC[C@@]21C (stereo partly drawn)
Kd: > 4 mM (inactive)

Oc1cnc2ccccc2c1CN1CCOCC1
Kd: > 4 mM (inactive)

Cc1cc(C)n(-c2nc(C)nc(N)n2)n1
Kd: > 4 mM (inactive)

CC(=O)c1c(O)cc(C)n(Cc2ccccc2)c1=O
Kd: > 4 mM (inactive)

COc1ccccc1Nc1nncc(=O)[nH]1
Kd: > 4 mM (inactive)

Cn1nc(C(=O)NCc2cccnc2)c2ccccc2c1=O
Kd: > 4 mM (inactive)

C/C(=C\CO)CC[C@H](C)CCC[C@H](C)CCCC(C)C
Kd: > 4 mM (inactive)

Cc1cc(=O)n(CC(C)C)c(O)c1C#N
Kd: > 4 mM (inactive)

NN1C(=O)/C(=C/c2ccc(O)c(O)c2)SC1=S
Kd: > 4 mM (inactive)

Cc1cc(C)n(/N=C\c2cccs2)c(=O)c1C(N)=O
Kd: > 4 mM (inactive)

O=C(Nc1ccon1)c1cc2c(s1)CCCC2
Kd: > 4 mM (inactive)

c1ccc(Cc2nn3c(-c4ccncc4)nnc3s2)cc1
Kd: > 4 mM (inactive)

Cc1cccc(C)c1NC(=O)/C=C/C(=O)O
Kd: > 4 mM (inactive)

CCOc1ccc(-c2n[nH]c(=S)n2C)cc1
Kd: > 4 mM (inactive)

O=C1CCCN1C(=O)c1ccc(F)cc1
Kd: > 4 mM (inactive)

Cc1n[nH]c(=S)n1-c1ccc(C(=O)O)cc1
Kd: > 4 mM (inactive)

Cn1nnc2cc(C(=O)NCc3ccco3)ccc21
Kd: > 4 mM (inactive)

O=C1NC(=S)N/C1=C\c1ccccc1
Kd: > 4 mM (inactive)

CN(C)C(=O)N1CCN(C(=O)c2ccco2)CC1
Kd: > 4 mM (inactive)

COc1ccc(CN2CCNC(=O)C2CC(=O)O)cc1C (stereo not drawn)
Kd: > 4 mM (inactive)

Cc1noc(C)c1C(=O)NCc1ccco1
Kd: > 4 mM (inactive)

N#CCN1C(=O)c2ccccc2S1(=O)=O
Kd: > 4 mM (inactive)

CC(=O)NC(=S)Nc1ccccc1N1CCOCC1
Kd: > 4 mM (inactive)

Cn1c2ccccc2n2c(=S)[nH]nc12
Kd: > 4 mM (inactive)

Cc1nc2ccccc2c(=O)[nH]1
Kd: > 4 mM (inactive)

COc1ccc(Cl)cc1-c1n[nH]c(=S)n1C
Kd: > 4 mM (inactive)

Cc1cc(C)nc(/N=C(/N)N2CCC(C(N)=O)CC2)n1
Kd: > 4 mM (inactive)

O=C(O)c1ccc(-n2ccnc2)cc1
Kd: > 4 mM (inactive)

CCOC(=O)C1=C(C)N2CCN=C2S1
Kd: > 4 mM (inactive)

CCOc1nc(C)ccc1-c1noc(-c2ccncc2)n1
Kd: > 4 mM (inactive)

COc1ccc(C(=O)NCC(=O)O)cc1
Kd: > 4 mM (inactive)

Nc1ccc(CCC(=O)O)cc1
Kd: > 4 mM (inactive)

C=C1[C@H]2CC[C@@]3(C)[C@H](c4ccoc4)OC(=O)C[C@]13O[C@H]1C[C@H](O)C(C)(C)[C@H](CC(=O)OC)[C@]12C
Kd: > 4 mM (inactive)

O=C(O)c1[nH]nc2c1COc1ccccc1-2
Kd: > 4 mM (inactive)

CN(C)N1C(=O)C2C3C=CC(O3)C2C1=O (stereo not drawn)
Kd: > 4 mM (inactive)

O=C(O)c1ncoc1-c1ccccc1
Kd: > 4 mM (inactive)

CSc1nc(NC(C)C)nc(N2CCOCC2)n1
Kd: > 4 mM (inactive)

CCCCN1C(=O)C2CC/C(=N/O)CC2C1=O (stereo not drawn)
Kd: > 4 mM (inactive)

O=C(Nc1cnccn1)c1cccnc1
Kd: > 4 mM (inactive)

Cc1ccc(C(=O)N2CC(=O)NC(=O)C2)cc1
Kd: > 4 mM (inactive)

COCCn1c(C)cc(O)cc1=O
Kd: > 4 mM (inactive)

COc1c(-c2ccccc2)oc2c(OC)cccc2c1=O
Kd: > 4 mM (inactive)

NC(=O)C1CCCN1S(=O)(=O)c1ccc(F)cc1 (stereo not drawn)
Kd: > 4 mM (inactive)

O=C1CSC(=Nc2ccc(O)cc2)N1
Kd: > 4 mM (inactive)

O=c1cc(-c2ccccc2)oc2c(O)c(O)ccc12
Kd: > 4 mM (inactive)

CSc1ncc(C(=O)O)n1Cc1ccccc1
Kd: > 4 mM (inactive)

O=C(O)C1CSC(c2ccc(Cl)cc2)N1 (stereo not drawn)
Kd: > 4 mM (inactive)

Cc1ccc(NC(=O)/C=C2\SC(=O)NC2=O)cc1
Kd: > 4 mM (inactive)

ON=c1ccc2nc3ccccc3nc2cc1
Kd: > 4 mM (inactive)

O=C1NC(=O)C(Cc2ccccc2)C(=O)N1
Kd: > 4 mM (inactive)

CCOC(=O)c1c[nH]c2c(F)cccc2c1=O
Kd: > 4 mM (inactive)

O=C(CSc1ccnc(=O)[nH]1)NCc1ccccc1
Kd: > 4 mM (inactive)

CC1CCC(N2CCN(c3ncccn3)CC2)CC1 (stereo not drawn)
Kd: > 4 mM (inactive)

Fc1ccc(Br)cc1/C=N/n1cnnc1
Kd: > 4 mM (inactive)

Cc1cc(C)n(CCCC(=O)O)n1
Kd: > 4 mM (inactive)

Cc1ccc(N2C(=O)CCC2=O)cc1
Kd: > 4 mM (inactive)

NC1=NC(=O)/C(=C/c2cccs2)S1
Kd: > 4 mM (inactive)

O=C(NC(=O)N1CCOCC1)c1ccccc1
Kd: > 4 mM (inactive)

Cc1cc(C)c2ccc[n+]([O-])c2c1O
Kd: > 4 mM (inactive)

Cc1cc(N)on1
Kd: > 4 mM (inactive)

CCNC(=O)CC[C@H](N)C(=O)O
Kd: > 4 mM (inactive)

O=C1C=C(Nc2ccccc2O)c2ccccc2C1=O
Kd: > 4 mM (inactive)

COC(=O)CSc1n[nH]c(N)n1
Kd: > 4 mM (inactive)

CC(=O)O[C@@H]1CC2C(C)(C)C(=O)[C@@H]3O[C@@H]3[C@]2(C)C2CC[C@]3(C)C(=CC(=O)O[C@H]3c3ccoc3)[C@@]21C (stereo partly drawn)
Kd: > 4 mM (inactive)

COC(=O)c1noc(-c2ccc(OC)cc2)n1
Kd: > 4 mM (inactive)

S=C(c1cccnc1)N1CCOCC1
Kd: > 4 mM (inactive)

CC(=O)OC1CCC23CC1(C)CCC2C(C)(C)CC3OC(C)=O (stereo not drawn)
Kd: > 4 mM (inactive)

Cn1nnc2c(N3CCC(C(N)=O)CC3)ncnc21
Kd: > 4 mM (inactive)

CN(C)C(=O)Nc1ccc(F)cc1F
Kd: > 4 mM (inactive)

OCn1nnn(-c2ccccc2)c1=S
Kd: > 4 mM (inactive)

Cc1c(C(=O)NC2=NCCS2)oc2ccccc12
Kd: > 4 mM (inactive)

COc1ccc(-c2cc(=O)c3c(OC(C)=O)cc(OC(C)=O)cc3o2)cc1
Kd: > 4 mM (inactive)

CCN=Cc1c(O)n(-c2ccccc2C)c(=O)[nH]c1=O
Kd: > 4 mM (inactive)

O=c1c(Cl)c(NCCO)ncn1-c1ccccc1
Kd: > 4 mM (inactive)

Nc1nc2ccc(S(N)(=O)=O)cc2s1
Kd: > 4 mM (inactive)

O=[N+]([O-])c1c[n+]([O-])n(-c2ccccc2)n1
Kd: > 4 mM (inactive)

O=C(c1ccccc1)N1CCN(c2ccccc2F)CC1
Kd: > 4 mM (inactive)

Nc1c(N2CCCC2)cnn(-c2ccccc2)c1=O
Kd: > 4 mM (inactive)

Cc1cc(C(=O)Nn2cnnc2)cs1
Kd: > 4 mM (inactive)

O=C(Nc1ccc(Cl)cn1)c1cnn2cccnc12
Kd: > 4 mM (inactive)

CC1(O)CC2C(CC1O)C2(C)C (stereo not drawn)
Kd: > 4 mM (inactive)

Cc1nn(C)c(Cl)c1S(=O)(=O)N1CCOCC1
Kd: > 4 mM (inactive)

Cc1cc(C(=O)NCc2cccnc2)no1
Kd: > 4 mM (inactive)

NS(=O)(=O)c1ccc(F)cc1
Kd: > 4 mM (inactive)

O=C(Cc1cccs1)Nc1nncs1
Kd: > 4 mM (inactive)

O=C(O)CC[N+](=O)[O-]
Kd: > 4 mM (inactive)

CC1(C)N=C2C(=N)C=CC=C2N1O
Kd: > 4 mM (inactive)

CC(C)/C(O)=C1/C(=O)O[C@@H](c2ccoc2)[C@]2(C)C(O)[C@@H](O)[C@@]34OC5(C)OC67CC(C)(C(O)[C@]6(O)[C@@H](O)[C@]3(O5)C12)[C@H](CC(=O)O)[C@]74C (stereo partly drawn)
Kd: > 4 mM (inactive)

CC(=O)NS(=O)(=O)c1ccc(C)cc1
Kd: > 4 mM (inactive)

COC1=CC23CCCN2CCc2cc4c(cc2C3C1O)OCO4 (stereo not drawn)
Kd: > 4 mM (inactive)

O=C(Nc1cnccn1)c1cccs1
Kd: > 4 mM (inactive)

O=C1CCCC(=O)N1c1ccc(O)cc1
Kd: > 4 mM (inactive)

COc1cccc(N2CCNCC2)c1
Kd: > 4 mM (inactive)

CN(C)S(=O)(=O)Nc1ccc(Br)cc1F
Kd: > 4 mM (inactive)

NC(=O)c1ccsc1NC(=O)c1cccnc1
Kd: > 4 mM (inactive)

Cc1ccc(CN2CCNC(=O)C2CC(=O)O)o1 (stereo not drawn)
Kd: > 4 mM (inactive)

CN1CCC(NC(=O)c2c(F)cccc2Cl)CC1
Kd: > 4 mM (inactive)

O=C(CSc1ncn[nH]1)c1ccc2c(c1)OCCO2
Kd: > 4 mM (inactive)

O=C(O)c1ccc(N2CCOCC2)nc1
Kd: > 4 mM (inactive)

C=C[C@H]1CN2CC[C@H]1C[C@@H]2[C@H](O)c1ccnc2ccccc12
Kd: > 4 mM (inactive)

CC(=O)O[C@H]1C(=O)[C@@]2(C)C([C@H](OC(=O)c3ccccc3)[C@]3(O)C[C@H](OC(=O)[C@H](O)[C@@H](NC(=O)c4ccccc4)c4ccccc4)C(C)=C1C3(C)C)[C@]1(OC(C)=O)CO[C@@H]1C[C@@H]2O (stereo partly drawn)
Kd: > 4 mM (inactive)

O=C(O[C@@H]1Cc2c(O)cc(O)cc2O[C@@H]1c1cc(O)c(O)c(O)c1)c1cc(O)c(O)c(O)c1
Kd: > 4 mM (inactive)

CN(C)C(=O)C12CCC(C)(C(=O)O1)C2(C)C (stereo not drawn)
Kd: > 4 mM (inactive)

C=CCN1CC[C@]23c4c5ccc(O)c4OC2C(=O)CC[C@@]3(O)[C@H]1C5 (stereo partly drawn)
Kd: > 4 mM (inactive)
